From patent publication US20160082015A1, “METHODS, COMPOSITIONS AND KITS FOR PROMOTING MOTOR NEURON SURVIVAL AND TREATING AND DIAGNOSING NEURODEGENERATIVE DISORDERS” (PRESIDENT AND FELLOWS OF HARVARD COLLEGE, priority 2013, published 2016)

Legend:
Hb9:GFP MNs = experiment: MN survival in co-culture with wild-type or SOD1^G93A astrocytes; format: cell-based, mouse; conditions: nine days of compound treatment, trophic factors present
Procedure: FIGS. 3A and 3B show line graphs showing effects of kenpaullone and GSK-3 inhibitor VIII on MN death induced by treatment with a PI3K inhibitor. LY294002 was added to cultures on day 4, with or without concurrent treatment with 10 μM kenpaullone or 10 μM GSK-3 inhibitor VIII. Cells were fixed on day 7 for survival analysis. Survival is measured with respect to cells treated with DMSO alone. FIG. 3C is a bar graph showing that Kenpaullone also blocks death of MNs accelerated by co-culture with SOD1^G93A astrocytes. Hb9:GFP MNs were FACS sorted and plated on a confluent monolayer of wild-type or SOD1^G93A astrocytes. Kenpaullone was added to cultures 24 hrs later and was refreshed every three days by replacing half of the old medium with fresh medium containing IX concentration of the compound. Cells were fixed after nine days of compound treatment and MN survival was determined. Trophic factors were present throughout the experiment. Data are presented as percent survival normalized to that of DMSO treated MNs plated on wild-type astrocytes. Again, kenpaullone was effective in decreasing the extent of death. * p<0.05, ** p<0.01, *** p<0.001 (Student's t test, two-tailed). Data are presented as mean±SEM. […]

[1] = test system: site-specific phosphorylation of kinases in MN cultures; experiment: Phospho-Kinase Antibody Array; format: cell-based, mouse
Procedure: Freshly dissociated HB9::GFP EBs were plated at a density of 3 million GFP+ cells/10 cm dish and trophic factor withdrawal/compound addition was performed on day 4. Protein lysates were generated 6 and 24 h after treatment using RIPA buffer supplemented with protease and phosphatase inhibitors (Pierce Biotechnology). Equal amounts of total protein from treatment groups were added to Phospho-Kinase Antibody Arrays (R&D Systems, #ARY003). Arrays were prepared following the manufacturer's instructions and developed with SuperSignal West Pico Chemiluminescent Substrate (Pierce Biotechnology). Background signal was subtracted and duplicate spot pixel densities were averaged using QuantityOne software (BioRad).

SOD1^G93A/HB9::GFP MNs = experiment: MN death induced by PI3K inhibitor LY294002; format: cell-based; conditions: 10 μM co-incubated with LY294002
Procedure: (§1) FIGS. 3A and 3B show line graphs showing effects of kenpaullone and GSK-3 inhibitor VIII on MN death induced by treatment with a PI3K inhibitor. LY294002 was added to cultures on day 4, with or without concurrent treatment with 10 μM kenpaullone or 10 μM GSK-3 inhibitor VIII. Cells were fixed on day 7 for survival analysis. Survival is measured with respect to cells treated with DMSO alone. FIG. 3C is a bar graph showing that Kenpaullone also blocks death of MNs accelerated by co-culture with SOD1^G93A astrocytes. Hb9:GFP MNs were FACS sorted and plated on a confluent monolayer of wild-type or SOD1^G93A astrocytes. Kenpaullone was added to cultures 24 hrs later and was refreshed every three days by replacing half of the old medium with fresh medium containing IX concentration of the compound. Cells were fixed after nine days of compound treatment and MN survival was determined. Trophic factors were present throughout the experiment. Data are presented as percent survival normalized to that of DMSO treated MNs plated on wild-type astrocytes. Again, kenpaullone was effective in decreasing the extent of death. * p<0.05, ** p<0.01, *** p<0.001 (Student's t test, two-tailed). Data are presented as mean±SEM.
(§2) The PI3K/Akt pathway is well known to regulate neuronal survival including that of MNs (Brunet et al., 2001; Barthélémy et al., 2004). […] The inventors sought to examine if either kenpaullone or a more specific GSK-3 inhibitor (Inhibitor VIII) could protect MNs from death caused by inactivation of PI3K/AKT. […] Thus kenpaullone's effects are not restricted to protection after trophic factor withdrawal.

HB9::GFP MNs [2] = experiment: MN death induced by PI3K inhibitor LY294002; format: cell-based; conditions: 10 μM co-incubated with LY294002
Procedure: as §1, §2

HB9::GFP MNs [3] = experiment: Mouse MN survival assay, trophic factor withdrawal; conditions: for survival of HB9::GFP MNs: trophic factors removed and compound added day 4, fixed day 7
Procedure: For the small molecule screen or for standard survival assays, freshly dissociated EBs were plated at a density of 8,000 GFP^+ cells (384-well) or 30.000 GFP+ cells (96-well) per well. Four days later (day 4), trophic factors (BDNF, GDNF and CNTF) were removed, and individual compounds were added to the wells. For the primary screen each was tested at three concentrations (0.1 μM, 1 μM and 10 μM) in duplicate. […] The number of MNs surviving was analyzed by counting the remaining GFP^+ cells in the whole well. Total cell numbers were obtained by counting Hoechst-positive nuclei. A size threshold was set based on control cultures to eliminate apoptotic MNs Unless stated otherwise, survival is measured as fold-increase compared to cultures maintained without trophic factors.
For long-term MN survival assays, MN cultures were fed with fresh medium and compounds every two days until fixation and quantification as above.
All primary hits were subsequently tested in a nine-point dose-response assay, using the same screening protocol.
HB9::GFP MNs [4] = experiment: Whole-cell voltage-clamp and current-clamp recordings; format: cell-based, mouse; conditions: −TF/+kenpaullone, 3 days
Procedure: Images show synapsin (yellow) and PSD95 (red) staining on a kenpaullone-treated MN. Arrows indicate examples of synapses on MNs. Data are presented as mean±SEM. Scale bar represents 50 μm. […] HB9::GFP MNs treated for 3 days in the absence of trophic factors (−TF/+kenpaullone) were compared to MNs that were grown in complete medium (+TF) in terms of functional sodium and potassium currents, action potentials, response to excitatory neurotransmitter (kainate, 100 μM), and response to inhibitory neurotransmitter (GABA, 100 μM).
Whole-cell voltage-clamp and current-clamp recordings were performed as described (Son et al., 2011).
To examine whether kenpaullone could maintain neuronal health during trophic factor withdrawal, the inventors also compared the electrophysiological properties of MNs grown in complete medium (+TF) with those of cells in trophic factor-deficient (−TF) medium with or without kenpaullone supplementation (FIGS. 4C and 10G). First of all, when the inventors attempted to record from cells grown in medium lacking both trophic factors and kenpaullone, the inventors were unable to obtain stable recordings despite a significant number of patch attempts. […] The inventors also recorded responses to excitatory neurotransmitters, such as kainate, and Inhibitory transmitters, such as GABA, in the two sets of MNs.

## O=C1Cc2c([nH]c3ccc(Br)cc23)-c2ccccc2N1 [Kenpaullone]
Hb9:GFP MNs
  MN survival on SOD1^G93A astrocytes: improved survival
  MN survival on wild-type astrocytes: improved survival
[1]
  relative phosphorylation of GSK-3: significant reduction
  relative phosphorylation of c-Jun: reduction
  relative phosphorylation of cJun N-terminal kinase (JNK): reduction
SOD1^G93A/HB9::GFP MNs
  protection from LY294002-induced MN death: significantly attenuated
HB9::GFP MNs [2]
  protection from LY294002-induced MN death: significantly attenuated
HB9::GFP MNs [3]; Ara-C before trophic factor withdrawal
  MN survival effect after Ara-C treatment to eliminate dividing progenitors: did not decrease the effect
HB9::GFP MNs [3]; days 7, 14, 21 and 28
  long-term survival of MNs without trophic factors: improved survival
HB9::GFP MNs [3]; first two weeks
  MN death in complete medium (+TF): reduced the death
HB9::GFP MNs [3]; highly enriched Hb9::GFP MN cultures, Ara-C, trophic factors removed
  survival of FACS purified MNs: still able to promote survival
HB9::GFP MNs [3]
  survival of HB9::GFP MNs: strong effects
HB9::GFP MNs [3]; listed as kenpaullone
  survival of HB9::GFP MNs: potent survival promoting effects
HB9::GFP MNs [4]
  electrophysiological properties compared with MNs in complete medium (+TF): no significant difference
